The values below come from US9057727B2, “Screening methods using G-protein coupled receptors and related compositions” (The General Hospital Corporation, priority 2007, dated 2015).

Square brackets hold non-standard residues; d marks the D form. Ends that are not written are not given here. Peptide text beside a SMILES is read from it. hArg = N=C(N)NCCCC[C@H](N)C(=O)O; Aib = CC(C)(N)C(=O)O

The target in one assay is T1, human PTH receptor (Homo sapiens, UniProt Q03431).
T1 construct: expressed in transfected cells
T1 sequence (Q03431 27-593 limits assumed): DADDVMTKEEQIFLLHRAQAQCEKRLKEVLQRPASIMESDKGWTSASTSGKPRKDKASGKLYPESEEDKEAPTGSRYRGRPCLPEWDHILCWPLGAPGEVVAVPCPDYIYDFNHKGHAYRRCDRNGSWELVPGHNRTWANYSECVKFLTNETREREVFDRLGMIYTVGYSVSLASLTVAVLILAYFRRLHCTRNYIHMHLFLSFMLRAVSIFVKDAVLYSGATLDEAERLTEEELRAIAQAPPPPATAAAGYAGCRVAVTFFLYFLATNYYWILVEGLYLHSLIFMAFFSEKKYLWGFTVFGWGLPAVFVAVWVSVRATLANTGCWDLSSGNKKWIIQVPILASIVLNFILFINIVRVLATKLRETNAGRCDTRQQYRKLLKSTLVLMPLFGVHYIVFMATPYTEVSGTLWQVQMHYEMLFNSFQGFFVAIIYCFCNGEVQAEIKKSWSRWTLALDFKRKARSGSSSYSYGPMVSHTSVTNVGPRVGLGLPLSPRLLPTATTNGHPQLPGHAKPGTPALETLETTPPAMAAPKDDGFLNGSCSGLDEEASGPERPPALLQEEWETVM
The assay can be described thus: cAMP in HRKRK-B7 cells EC50 (nM). From the text: Table printed on a drawing sheet, Figure 25
Head of the field: cAMP in HRKRK-B7 cells EC50 (nM)
First copying reader's note: The column head prints the cell line as HRKRK-B7 while the title prints HKRK-B7.

For assay [1], the target named is hPTH1R (RG form of the human PTH receptor). In words: RG memb: hPTH1R+dnGS *M-PTH(1-15).
Assay [2] relates to PTHR-CFPIC3/YFPCT (PTHR-cam). In words: FRET analysis of ligand binding/receptor activation in HEK-293 cells. It is filed as cell-based, human.
Description: HEK-293 cells stably transfected with a PTHR construct (PTHR-cam) containing cyan fluorescent protein (CFP) in the third intracellular loop and yellow fluorescent protein (YFP) in the carboxy-terminal tail, were used to assess the kinetics of ligand binding to, and dissociation from the PTHR. With PTHR-cam, excitation of the CFP with ultraviolet light (λexc=436 nm) produces an intramolecular FRET to the YFP, which is observable as an increase in light emission from YFP (λemm=535 nm) and a decrease in light emission from CFP λemm=480 nm). This FRET signal occurs in the ground-state receptor and decreases upon agonist binding. […] Data are from a single experiment, and identical results were obtained in at least three others.
The approach used exploits an intramolecular FRET signal that occurs in a human PTHR construct, PTHR-CFPIC3/YFPCT (formerly called PTHR-cam). This construct contains cyan-fluorescent protein (CFP) in the third intracellular loop and yellow-fluorescent protein (YFP) in the carboxy-terminal tail. A FRET signal is produced by PTHR-CFPIC3/YFPCT in the basal state, and this signal diminishes upon agonist binding, likely due to conformational change that occurs upon activation.
HEK-293 cells stably expressing HEK-PTHR-CFPIC3/YFPCT (previously called HEK-PTHR-Cam cells (Vilardaga et al., Nat. Biotechnol. 21:807-812 (2003)) were grown on glass coverslips and processed for FRET analysis as described. With these cells, excitation of the CFP (donor) in PTHR-CFPIC3/YFPCT with ultraviolet light (λmax.ex.=436 nm; λmax.em.=480 nm) produces an intramolecular FRET to the YFP (acceptor), resulting in emission from that YFP (λmax.ex.=480 nm, λmax.em.=535 nm). This FRET response is observable as a decrease in intensity of CFP light emission at 480 nm, and an increase in intensity of YFP light emission at 535 nm. The FRET signal is produced by PTHR-CFPIC3/YFPCT in the ground-state receptor and decreases upon binding of an agonist. […] Fluorescence was monitored using a Zeiss inverted microscope equipped with a 100× objective and a dual emission photometric system (Til Photonics), coupled to an avalanche photodiode detection system and an analog-digital converter (Axon Instruments). The FRET signal detected upon excitation at 436 nm was calculated as the normalized FRET ratio: FYFP(535 nm)/FCFP(480 nm) where FYFP(535 nm) is the emission at 535 nm, corrected for spillover of the CFP signal into the YFP channel, and FCFP(480 nm) is the emission at 480 nm, corrected for spillover (minimal) of the YFP emission into the CFP channel. Changes in fluorescence emissions due to photo-bleaching were subtracted.
Assay [3] can be described thus: Calcemic action in normal rats (blood ionized calcium). It is filed as in vivo. The note with it: normal and TPTX rats. Here is the method:
Binding to the rat PTHR was also measured in vitro.
Concentration of peptides in stock solution were adjusted by dilution with 25 mmol/L phosphate-citrate buffer/100 mmol/L NaCl/0.05% Tween 80 (pH. 5.0) (PC-buffer). All peptides were allowed to stand on ice immediately before administration.
Female SD-IGS rat at 8 weeks of age (Charles River Japan, Inc.) were measured for their body weight. Blood was collected by tail vein into heparinized capillary tubes and measured for baseline levels of blood ionized calcium and pH using Ca^++/pH analyzer (Model 634/Bayer Medical Ltd.) to give the corrected level of ionized calcium at pH 7.4 for each sample. Rats received intravenous administration of each peptides at a dose of 1 ml/kg. Peptides were administered to groups of 6 rats each respectively. At 1, 2, 4, or 6 hours after administration, blood was collected by tail vein to monitor the time course of corrected blood ionized calcium levels. The time course of changes in corrected ionized calcium levels, compared to vehicle, and are expressed as means+/−standard error.

In the case of `CC[C@H](C)[C@H](NC(=O)[C@H](CCC(=O)O)NC(=O)[C@H](C)NC(=O)[C@@H](NC(=O)[C@H](Cc1c[nH]cn1)NC(=O)[C@@H](NC(=O)[C@H](CC(=O)O)NC(=O)[C@H](CCC(N)=O)NC(=O)[C@H](CC(C)C)NC(=O)[C@H](CCCCN)NC(=O)[C@H](CCCCN)NC(=O)[C@H](CCCNC(=N)N)NC(=O)[C@H](CC(C)C)NC(=O)[C@H](Cc1c[nH]c2ccccc12)NC(=O)[C@H](CCC(=O)O)NC(=O)[C@@H](NC(=O)[C@H](CCCNC(=N)N)NC(=O)[C@H](CCC(=O)O)NC(=O)[C@H](CCSC)NC(=O)[C@H](CO)NC(=O)[C@H](CC(N)=O)NC(=O)[C@H](CC(C)C)NC(=O)[C@H](Cc1c[nH]cn1)NC(=O)[C@H](CCCCN)NC(=O)CNC(=O)[C@H](CC(C)C)NC(=O)[C@H](CC(N)=O)NC(=O)[C@H](Cc1c[nH]cn1)NC(=O)[C@H](CCSC)NC(=O)[C@H](CC(C)C)NC(=O)[C@H](CCC(N)=O)NC(=O)[C@@H](NC(=O)[C@H](CCC(=O)O)NC(=O)[C@H](CO)NC(=O)[C@@H](NC(=O)[C@@H](N)CO)C(C)C)[C@@H](C)CC)C(C)C)[C@@H](C)CC)[C@@H](C)O)C(=O)O` [PTH(1-30)/PTHrP(31-36)], a half-maximal response on human PTH receptor (EC50) required 0.78 nM. The IC50 (in general, the midpoint of a concentration-inhibition curve) in assay [1] worked out at 0.17 nM.

On to “[Aib^1,3,Gln^10,Har^11,Ala^12,Trp^14]rPTH(1-14)NH2 ([Aib]V[Aib]EIQLMHQ[hArg]AKW-NH2; N-terminus assumed; SMILES CC[C@H](C)[C@H](NC(=O)[C@H](CCC(=O)O)NC(=O)C(C)(C)NC(=O)[C@@H](NC(=O)C(C)(C)N)C(C)C)C(=O)N[C@@H](CCC(N)=O)C(=O)N[C@@H](CC(C)C)C(=O)N[C@@H](CCSC)C(=O)N[C@@H](Cc1c[nH]cn1)C(=O)N[C@@H](CCC(N)=O)C(=O)N[C@@H](CCCCNC(=N)N)C(=O)N[C@@H](C)C(=O)N[C@@H](CCCCN)C(=O)N[C@@H](Cc1c[nH]c2ccccc12)C(N)=O) [[Aib^1,3,M]PTH(1-14)]”, for which the “reduction (magnitude) of FRET signal” value in assay [2] is listed as around 5%.

In the case of `CC[C@H](C)[C@H](NC(=O)[C@H](CCC(=O)O)NC(=O)[C@H](CO)NC(=O)[C@@H](NC(=O)[C@@H](N)CO)C(C)C)C(=O)N[C@@H](CCC(N)=O)C(=O)N[C@@H](CC(C)C)C(=O)N[C@@H](CCSC)C(=O)N[C@@H](Cc1c[nH]cn1)C(=O)N[C@@H](CC(N)=O)C(=O)N[C@@H](CC(C)C)C(=O)NCC(=O)N[C@@H](CCCCN)C(=O)N[C@@H](Cc1c[nH]cn1)C(=O)N[C@@H](CC(C)C)C(=O)N[C@@H](CC(N)=O)C(=O)N[C@@H](CO)C(=O)N[C@@H](CCSC)C(=O)N[C@@H](CCC(=O)O)C(=O)N[C@@H](CCCNC(=N)N)C(=O)N[C@H](C(=O)N[C@@H](CCC(=O)O)C(=O)N[C@@H](Cc1c[nH]c2ccccc12)C(=O)N[C@@H](CC(C)C)C(=O)N[C@@H](CCCNC(=N)N)C(=O)N[C@@H](CCCCN)C(=O)N[C@@H](CCCCN)C(=O)N[C@@H](CC(C)C)C(=O)N[C@@H](CCC(N)=O)C(=O)N[C@@H](CC(=O)O)C(=O)N[C@H](C(=O)N[C@@H](Cc1c[nH]cn1)C(=O)N[C@@H](CC(N)=O)C(=O)N[C@@H](Cc1ccccc1)C(=O)O)C(C)C)C(C)C` [hPTH(1-34), Human parathyroid hormone (1-34)], in assay [2], the “FRET signal after exchange to ligand-free buffer, in words” value was “remained suppressed” and the “reduction (magnitude) of FRET signal” value is around 13%.

Consider `CC[C@H](C)[C@H](NC(=O)[C@H](CCC(=O)O)NC(=O)[C@H](C)NC(=O)[C@@H](NC(=O)[C@H](Cc1c[nH]cn1)NC(=O)[C@@H](NC(=O)[C@H](CCC(=O)O)NC(=O)[C@H](C)NC(=O)[C@@H](NC(=O)[C@H](CC(C)C)NC(=O)[C@H](Cc1c[nH]cn1)NC(=O)[C@H](Cc1c[nH]cn1)NC(=O)[C@H](CC(C)C)NC(=O)[C@H](Cc1ccccc1)NC(=O)[C@H](Cc1ccccc1)NC(=O)[C@H](CCCNC(=N)N)NC(=O)[C@H](CCCNC(=N)N)NC(=O)[C@H](CCCNC(=N)N)NC(=O)[C@H](CCSC)NC(=O)[C@H](CO)NC(=O)[C@H](CC(N)=O)NC(=O)[C@H](CC(C)C)NC(=O)[C@H](Cc1c[nH]cn1)NC(=O)[C@H](CCCCN)NC(=O)CNC(=O)[C@H](CC(C)C)NC(=O)[C@H](CC(N)=O)NC(=O)[C@H](Cc1c[nH]cn1)NC(=O)[C@H](CCSC)NC(=O)[C@H](CC(C)C)NC(=O)[C@H](CCC(N)=O)NC(=O)[C@@H](NC(=O)[C@H](CCC(=O)O)NC(=O)[C@H](CO)NC(=O)[C@@H](NC(=O)[C@@H](N)CO)C(C)C)[C@@H](C)CC)[C@@H](C)CC)[C@@H](C)CC)[C@@H](C)O)C(=O)O` [PTH(1-18)/PTHrP(19-36), hPTH(1-18)/PTHrP(19-36)] (H-SVSEIQLMHNLGKHLNSMRRRFFLHHLIAEIHTAEI-OH), for which, at human PTH receptor, a half-maximal response (EC50) required 1.34 nM. The “calcemic action compared with control peptides, in words” value in assay [3] was “higher calcemic actions than did PTH(1-34)”.
